According to US20080009418A1, “Selective Inhibitors” (Alchemia LTD., priority 2004, published 2008):

What was measured:
[1] = target: T1, Human κ-Opioid (KOP) (Homo sapiens, UniProt P41145); test: Radioligand binding, human κ-opioid (KOP) membranes, filtration, [3H]-Diprenorphine; details: compound at 10 μM, [3H]-Diprenorphine
T1 construct: purchased Perkin Elmer Biosignal
Outline: (§1)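 Percent inhibition of radioligand binding measured on recombinant human membranes: NK1 with [125I]-Substance P, KOP with [3H]-Diprenorphine. Incubation 1 h at room temperature, then harvest onto 0.3% PEI-soaked filters, cold Tris-HCl pH 7.4 washes and scintillation counting; non-specific binding from reference ligand wells.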

[2] = target: T2, Mouse urotensin (mUR2) (Mus musculus, UniProt Q8VIH9); test: Radioligand binding, mouse urotensin mUR2 membranes, FlashPlate, [125I]-Urotensin II; details: compound at 10 μM, [125I]-Urotensin II
T2 construct: purchased Perkin Elmer Biosignal
T2 sequence (Q8VIH9 1-385): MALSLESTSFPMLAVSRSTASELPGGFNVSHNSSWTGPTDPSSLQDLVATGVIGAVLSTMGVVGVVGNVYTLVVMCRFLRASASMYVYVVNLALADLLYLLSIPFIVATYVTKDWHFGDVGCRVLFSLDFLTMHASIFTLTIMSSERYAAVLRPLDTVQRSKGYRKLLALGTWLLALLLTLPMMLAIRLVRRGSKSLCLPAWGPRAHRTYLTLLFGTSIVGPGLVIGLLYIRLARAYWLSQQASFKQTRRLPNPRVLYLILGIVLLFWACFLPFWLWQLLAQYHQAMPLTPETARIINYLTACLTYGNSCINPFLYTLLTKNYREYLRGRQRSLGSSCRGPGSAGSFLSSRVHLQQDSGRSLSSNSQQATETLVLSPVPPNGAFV
Outline: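 Cloned mouse urotensin (mUR2) receptor membranes from Perkin Elmer Biosignal were immobilized in FlashPlate microplates using a proprietary coating. Each well got 19.5 μl buffer, then 0.5 μl of DMSO, reference ligand, or compound. Adding 5 μl of [125I]-Urotensin II, diluted to 5× final concentration in binding buffer, started binding. Plates were sealed with TopSeal-A and incubated 1 hour at room temperature in the dark. Wells were counted for 30 seconds each on a TopCount after a 60-second delay, and percentage inhibition was calculated.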

[3] = target: T3, Human δ-opioid (DOP) (Homo sapiens, UniProt P41143); test: Radioligand binding, human δ-opioid (DOP) membranes, FlashPlate, [3H]-Bremazocine; details: compound at 10 μM, [3H]-Bremazocine
T3 construct: purchased Perkin Elmer Biosignal
Outline: (§2)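 Cloned human receptor membranes were coated onto FlashPlate wells and incubated with radioligand and compound (added from a 0.5 mM DMSO daughter plate) for 1 hour at room temperature in the dark. Scintillation counting gave percent inhibition, with DMSO defining total and reference ligand defining non-specific binding.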

[4] = target: T4, Human neuropeptide Y (NPY-Y1) (Homo sapiens, UniProt P25929); test: Radioligand binding, human neuropeptide Y NPY-Y1 membranes, FlashPlate, [125I]-PYY; details: compound at 10 μM, [125I]-PYY
T4 construct: purchased Perkin Elmer Biosignal
T4 sequence (P25929 1-384): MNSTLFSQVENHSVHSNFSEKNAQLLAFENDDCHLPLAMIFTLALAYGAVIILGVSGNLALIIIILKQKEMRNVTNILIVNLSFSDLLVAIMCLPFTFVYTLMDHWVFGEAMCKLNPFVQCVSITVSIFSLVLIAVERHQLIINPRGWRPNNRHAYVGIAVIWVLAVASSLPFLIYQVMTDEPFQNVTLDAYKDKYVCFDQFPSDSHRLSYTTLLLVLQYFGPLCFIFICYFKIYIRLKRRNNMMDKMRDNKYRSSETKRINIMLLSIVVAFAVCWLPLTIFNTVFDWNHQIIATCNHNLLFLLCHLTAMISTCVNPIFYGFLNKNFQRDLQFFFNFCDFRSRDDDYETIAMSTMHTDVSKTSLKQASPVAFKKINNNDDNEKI
Outline: as §2

[5] = target: T5, Human Melanocortin (MC4) (Homo sapiens, UniProt P32245); test: Radioligand binding, human melanocortin MC4 membranes, FlashPlate, [125I]-NDP-αMSH; details: compound at 10 μM, [125I]-NDP-αMSH
T5 construct: purchased Perkin Elmer Biosignal
Outline: as §2

[6] = target: T6, Human Melanocortin (MC3) (Homo sapiens, UniProt P41968); test: Radioligand binding, human melanocortin MC3 membranes, FlashPlate, [125I]-NDP-αMSH; details: compound at 10 μM, [125I]-NDP-αMSH
T6 construct: purchased Perkin Elmer Biosignal
Outline: as §2

[7] = target: T7, Human neurokinin (NK1) (Homo sapiens, UniProt P25103); test: Radioligand binding, human neurokinin NK1 membranes, filtration, [125I]-Substance P; details: compound at 10 μM, [125I]-Substance P
T7 construct: purchased Perkin Elmer Biosignal
Outline: as §1

[8] = target: T8, Human opioid (ORL1) (Homo sapiens, UniProt P41146); test: Radioligand binding, human opioid ORL1 membranes, FlashPlate, [125I]-Nociceptin; details: compound at 10 μM, [125I]-Nociceptin
T8 construct: purchased Perkin Elmer Biosignal
Outline: as §2

[9] = target: T9, Human μ-opioid (MOP) (Homo sapiens, UniProt P35372); test: Radioligand binding, human μ-opioid (MOP) membranes, FlashPlate, [3H]-Naloxone; details: compound at 10 μM, [3H]-Naloxone
T9 construct: purchased Perkin Elmer Biosignal
Outline: as §2

[10] = target: T10, Human melanin-concentrating hormone (MCH1) (Homo sapiens, UniProt Q99705); test: Radioligand binding, human melanin-concentrating hormone MCH1 membranes, FlashPlate, [125I]-S36057; details: compound at 10 μM
T10 construct: purchased Perkin Elmer Biosignal
Outline: as §2

[11] = target: T11, Human melanocortin (MC5) (Homo sapiens, UniProt P33032); test: Radioligand binding, human melanocortin MC5 membranes, FlashPlate, [125I]-NDP-αMSH; details: compound at 10 μM, [125I]-NDP-αMSH
T11 construct: purchased Perkin Elmer Biosignal
Outline: as §2

T11 sequence (P33032 whole entry): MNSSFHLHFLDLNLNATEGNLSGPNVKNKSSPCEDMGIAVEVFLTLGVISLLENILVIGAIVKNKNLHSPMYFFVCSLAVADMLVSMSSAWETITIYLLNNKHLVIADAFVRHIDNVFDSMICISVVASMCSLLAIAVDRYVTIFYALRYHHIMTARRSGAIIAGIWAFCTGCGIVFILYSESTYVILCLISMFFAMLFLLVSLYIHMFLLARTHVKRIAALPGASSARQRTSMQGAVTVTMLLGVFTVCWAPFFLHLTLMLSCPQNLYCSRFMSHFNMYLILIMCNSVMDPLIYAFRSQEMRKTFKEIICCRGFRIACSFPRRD
T9 sequence (P35372 whole entry): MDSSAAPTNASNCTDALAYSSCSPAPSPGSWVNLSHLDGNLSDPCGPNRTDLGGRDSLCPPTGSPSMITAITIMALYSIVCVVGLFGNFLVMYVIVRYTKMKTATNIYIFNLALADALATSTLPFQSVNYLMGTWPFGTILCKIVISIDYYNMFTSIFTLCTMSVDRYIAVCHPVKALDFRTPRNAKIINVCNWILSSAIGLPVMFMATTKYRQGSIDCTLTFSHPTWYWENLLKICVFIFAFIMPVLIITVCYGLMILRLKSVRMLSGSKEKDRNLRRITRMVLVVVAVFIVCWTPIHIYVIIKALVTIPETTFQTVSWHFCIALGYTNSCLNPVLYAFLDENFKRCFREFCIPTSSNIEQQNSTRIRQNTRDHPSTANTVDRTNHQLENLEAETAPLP
T7 sequence (P25103 whole entry): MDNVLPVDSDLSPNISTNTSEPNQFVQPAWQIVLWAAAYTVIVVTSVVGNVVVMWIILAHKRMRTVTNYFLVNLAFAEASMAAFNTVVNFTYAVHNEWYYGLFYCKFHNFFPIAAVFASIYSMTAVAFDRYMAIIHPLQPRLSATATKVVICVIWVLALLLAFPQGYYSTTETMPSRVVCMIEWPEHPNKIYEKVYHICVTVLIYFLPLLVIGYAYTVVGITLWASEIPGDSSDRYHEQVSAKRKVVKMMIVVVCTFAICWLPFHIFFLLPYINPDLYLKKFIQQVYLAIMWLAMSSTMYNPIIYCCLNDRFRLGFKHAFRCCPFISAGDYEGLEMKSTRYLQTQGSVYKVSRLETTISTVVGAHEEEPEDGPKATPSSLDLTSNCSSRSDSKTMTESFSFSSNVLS
T8 sequence (P41146 whole entry): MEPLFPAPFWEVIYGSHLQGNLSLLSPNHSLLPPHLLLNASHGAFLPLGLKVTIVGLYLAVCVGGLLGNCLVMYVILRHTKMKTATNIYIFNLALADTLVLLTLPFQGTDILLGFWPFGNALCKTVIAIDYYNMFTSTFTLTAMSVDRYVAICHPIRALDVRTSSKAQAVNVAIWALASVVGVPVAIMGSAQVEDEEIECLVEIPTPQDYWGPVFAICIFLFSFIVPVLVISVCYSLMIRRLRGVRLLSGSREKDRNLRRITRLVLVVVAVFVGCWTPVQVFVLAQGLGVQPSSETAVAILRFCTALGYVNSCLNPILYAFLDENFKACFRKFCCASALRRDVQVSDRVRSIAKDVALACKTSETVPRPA
T5 sequence (P32245 whole entry): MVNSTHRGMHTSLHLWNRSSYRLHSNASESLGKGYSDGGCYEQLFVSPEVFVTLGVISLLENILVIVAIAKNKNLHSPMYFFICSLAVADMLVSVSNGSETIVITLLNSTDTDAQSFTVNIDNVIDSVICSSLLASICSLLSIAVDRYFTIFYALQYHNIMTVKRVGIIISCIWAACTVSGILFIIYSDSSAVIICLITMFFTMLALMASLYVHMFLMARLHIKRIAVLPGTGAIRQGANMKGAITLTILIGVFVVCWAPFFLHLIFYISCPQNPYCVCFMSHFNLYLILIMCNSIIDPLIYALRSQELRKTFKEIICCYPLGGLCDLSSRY
T1 sequence (P41145 whole entry): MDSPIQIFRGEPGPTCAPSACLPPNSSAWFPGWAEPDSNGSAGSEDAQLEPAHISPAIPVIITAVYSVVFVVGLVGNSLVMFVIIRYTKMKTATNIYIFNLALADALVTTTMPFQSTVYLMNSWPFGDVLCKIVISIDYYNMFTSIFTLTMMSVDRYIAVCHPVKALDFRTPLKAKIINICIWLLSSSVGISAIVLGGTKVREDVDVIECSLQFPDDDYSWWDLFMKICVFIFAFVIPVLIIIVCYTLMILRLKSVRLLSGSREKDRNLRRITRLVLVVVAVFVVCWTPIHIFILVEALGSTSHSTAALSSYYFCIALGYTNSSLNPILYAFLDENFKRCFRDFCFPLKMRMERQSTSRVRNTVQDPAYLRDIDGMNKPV
T10 sequence (Q99705 whole entry): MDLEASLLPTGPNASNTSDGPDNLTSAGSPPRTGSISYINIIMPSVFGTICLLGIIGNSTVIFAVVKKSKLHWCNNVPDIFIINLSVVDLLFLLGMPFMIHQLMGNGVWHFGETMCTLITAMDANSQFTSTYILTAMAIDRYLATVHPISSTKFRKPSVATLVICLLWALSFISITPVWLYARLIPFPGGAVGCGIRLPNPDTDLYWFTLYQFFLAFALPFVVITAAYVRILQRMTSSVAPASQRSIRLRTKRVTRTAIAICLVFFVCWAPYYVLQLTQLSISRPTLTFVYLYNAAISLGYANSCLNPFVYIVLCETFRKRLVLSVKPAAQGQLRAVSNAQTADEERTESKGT
T6 sequence (P41968 whole entry): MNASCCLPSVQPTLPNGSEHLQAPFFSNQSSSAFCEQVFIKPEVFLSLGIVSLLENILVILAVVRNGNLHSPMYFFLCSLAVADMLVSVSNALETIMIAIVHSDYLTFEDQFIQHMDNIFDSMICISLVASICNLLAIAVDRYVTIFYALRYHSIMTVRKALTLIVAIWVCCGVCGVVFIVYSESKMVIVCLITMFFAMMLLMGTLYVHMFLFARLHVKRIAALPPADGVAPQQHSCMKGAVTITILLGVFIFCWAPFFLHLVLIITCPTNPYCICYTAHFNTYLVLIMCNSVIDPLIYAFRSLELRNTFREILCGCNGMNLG
T3 sequence (P41143 whole entry): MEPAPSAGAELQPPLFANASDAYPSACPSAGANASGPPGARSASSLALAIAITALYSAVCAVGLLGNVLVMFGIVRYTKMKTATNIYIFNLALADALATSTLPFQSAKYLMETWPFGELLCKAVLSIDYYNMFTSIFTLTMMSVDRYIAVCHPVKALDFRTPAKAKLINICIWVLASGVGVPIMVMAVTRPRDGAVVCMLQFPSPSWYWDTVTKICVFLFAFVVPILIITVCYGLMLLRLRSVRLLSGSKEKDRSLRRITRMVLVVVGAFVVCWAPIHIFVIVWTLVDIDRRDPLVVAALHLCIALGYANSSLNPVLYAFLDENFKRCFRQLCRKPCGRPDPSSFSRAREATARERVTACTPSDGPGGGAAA

CSC1OC(COCc2ccc(Cl)cc2)C(O)C(OCc2ccc(Cl)cc2)C1NC(=O)CNC(=N)N (stereo not shown) [compound 270]
A2: inhibition of radioligand binding ([1]; filtration): − (“−” indicates less than 50% inhibition at 10 μM)
A11: inhibition of radioligand binding ([2]; FlashPlate): − (“−” indicates less than 50% inhibition at 10 μM)
A1: inhibition of radioligand binding ([3]; FlashPlate): − (“−” indicates less than 50% inhibition at 10 μM)
A9: inhibition of radioligand binding ([4]; FlashPlate): − (“−” indicates less than 50% inhibition at 10 μM)
A4: inhibition of radioligand binding ([5]; FlashPlate): + (“+” indicates greater than 50% inhibition at 10 μM)
A3: inhibition of radioligand binding ([6]; FlashPlate): + (“+” indicates greater than 50% inhibition at 10 μM)
A8: inhibition of radioligand binding ([7]; filtration): + (“+” indicates greater than 50% inhibition at 10 μM)
A10: inhibition of radioligand binding ([8]; FlashPlate): − (“−” indicates less than 50% inhibition at 10 μM)
A7: inhibition of radioligand binding ([9]; FlashPlate): − (“−” indicates less than 50% inhibition at 10 μM)
A6: inhibition of radioligand binding ([10]; [125I]-S36057, FlashPlate): − (“−” indicates less than 50% inhibition at 10 μM)
A5: inhibition of radioligand binding ([11]; FlashPlate): + (“+” indicates greater than 50% inhibition at 10 μM)

NCCCC(=O)NC1C(OCc2ccc(Cl)cc2)OC(COCc2ccc(Cl)cc2)C(O)C1OCc1ccc2ccccc2c1 (single isomer, unassigned) [compound 500]
A2: inhibition of radioligand binding, human κ-opioid (KOP) [1]: − (“−” indicates less than 50% inhibition at 10 μM)
A11: inhibition of radioligand binding, mouse urotensin (mUR2) [2]: − (“−” indicates less than 50% inhibition at 10 μM)
A1: inhibition of radioligand binding, human δ-opioid (DOP) [3]: − (“−” indicates less than 50% inhibition at 10 μM)
A9: inhibition of radioligand binding, human neuropeptide Y (NPY-Y1) [4]: − (“−” indicates less than 50% inhibition at 10 μM)
A4: inhibition of radioligand binding, human melanocortin (MC4) [5]: + (“+” indicates greater than 50% inhibition at 10 μM)
A3: inhibition of radioligand binding, human melanocortin (MC3) [6]: + (“+” indicates greater than 50% inhibition at 10 μM)
A8: inhibition of radioligand binding, human neurokinin (NK1) [7]: + (“+” indicates greater than 50% inhibition at 10 μM)
A10: inhibition of radioligand binding, human opioid (ORL1) [8]: + (“+” indicates greater than 50% inhibition at 10 μM)
A7: inhibition of radioligand binding, human μ-opioid (MOP) ([9]; 10 µM): + (“+” indicates greater than 50% inhibition at 10 μM)
A6: inhibition of radioligand binding, human melanin-concentrating hormone (MCH1) ([10]; [125I]-S36057, 10 µM): + (“+” indicates greater than 50% inhibition at 10 μM)
A5: inhibition of radioligand binding, human melanocortin (MC5) [11]: + (“+” indicates greater than 50% inhibition at 10 μM)

NCCC(=O)NC1C(OCc2ccc3ccccc3c2)OC(COCc2ccc(Cl)cc2)C(O)C1OCc1ccccc1 (single isomer, unassigned) [compound 452]
A2: inhibition of radioligand binding ([1]; human KOP membranes): − (“−” indicates less than 50% inhibition at 10 μM)
A11: inhibition of radioligand binding ([2]; mouse mUR2 membranes): − (“−” indicates less than 50% inhibition at 10 μM)
A1: inhibition of radioligand binding ([3]; human DOP membranes): − (“−” indicates less than 50% inhibition at 10 μM)
A9: inhibition of radioligand binding ([4]; human NPY-Y1 membranes): − (“−” indicates less than 50% inhibition at 10 μM)
A4: inhibition of radioligand binding ([5]; human MC4 membranes): + (“+” indicates greater than 50% inhibition at 10 μM)
A3: inhibition of radioligand binding ([6]; human MC3 membranes, 10 µM): − (“−” indicates less than 50% inhibition at 10 μM)
A8: inhibition of radioligand binding ([7]; human NK1 membranes): + (“+” indicates greater than 50% inhibition at 10 μM)
A10: inhibition of radioligand binding ([8]; human ORL1 membranes, 10 µM): − (“−” indicates less than 50% inhibition at 10 μM)
A7: inhibition of radioligand binding ([9]; human MOP membranes): − (“−” indicates less than 50% inhibition at 10 μM)
A6: inhibition of radioligand binding ([10]; [125I]-S36057, human MCH1 membranes, 10 µM): − (“−” indicates less than 50% inhibition at 10 μM)
A5: inhibition of radioligand binding ([11]; human MC5 membranes): + (“+” indicates greater than 50% inhibition at 10 μM)

CO[C@H]1[C@H](O)[C@@H](COCc2cccc(O)c2)OC(OCc2ccc(-c3ccccc3)cc2)[C@@H]1NC(=O)CCCNC(=N)N (stereo partly shown) [compound 149]
A2 radioligand binding, percentage inhibition [1]: − (“−” indicates less than 50% inhibition at 10 μM)
A11 radioligand binding, percentage inhibition [2]: − (“−” indicates less than 50% inhibition at 10 μM)
A1 radioligand binding, percentage inhibition [3]: − (“−” indicates less than 50% inhibition at 10 μM)
A9 radioligand binding, percentage inhibition [4]: − (“−” indicates less than 50% inhibition at 10 μM)
A4 radioligand binding, percentage inhibition [5]: − (“−” indicates less than 50% inhibition at 10 μM)
A3 radioligand binding, percentage inhibition [6]: − (“−” indicates less than 50% inhibition at 10 μM)
A8 radioligand binding, percentage inhibition [7]: + (“+” indicates greater than 50% inhibition at 10 μM)
A10 radioligand binding, percentage inhibition [8]: − (“−” indicates less than 50% inhibition at 10 μM)
A7 radioligand binding, percentage inhibition [9]: + (“+” indicates greater than 50% inhibition at 10 μM)
A6 radioligand binding, percentage inhibition ([10]; [125I]-S36057): − (“−” indicates less than 50% inhibition at 10 μM)
A5 radioligand binding, percentage inhibition [11]: − (“−” indicates less than 50% inhibition at 10 μM)

[N-]=[N+]=N[C@H]1C(OCCNC(=N)N)O[C@H](COCc2ccccc2)[C@@H](O)[C@@H]1OCc1ccc2ccccc2c1 (stereo partly shown) [compound 127]
A2 radioligand binding, percentage inhibition [1]: − (“−” indicates less than 50% inhibition at 10 μM)
A11 radioligand binding, percentage inhibition [2]: − (“−” indicates less than 50% inhibition at 10 μM)
A1 radioligand binding, percentage inhibition [3]: − (“−” indicates less than 50% inhibition at 10 μM)
A9 radioligand binding, percentage inhibition [4]: − (“−” indicates less than 50% inhibition at 10 μM)
A4 radioligand binding, percentage inhibition [5]: + (“+” indicates greater than 50% inhibition at 10 μM)
A3 radioligand binding, percentage inhibition [6]: − (“−” indicates less than 50% inhibition at 10 μM)
A8 radioligand binding, percentage inhibition [7]: + (“+” indicates greater than 50% inhibition at 10 μM)
A10 radioligand binding, percentage inhibition [8]: − (“−” indicates less than 50% inhibition at 10 μM)
A7 radioligand binding, percentage inhibition [9]: − (“−” indicates less than 50% inhibition at 10 μM)
A6 radioligand binding, percentage inhibition ([10]; [125I]-S36057): − (“−” indicates less than 50% inhibition at 10 μM)
A5 radioligand binding, percentage inhibition [11]: + (“+” indicates greater than 50% inhibition at 10 μM)
